One assay has as its system KB (RFC/PCFT/FRα) cells. As to the kind of experiment: Growth inhibition, KB nasopharyngeal carcinoma cells. The settings on record: Homo sapiens, KB, folate-free RPMI 1640, 2 nM leucovorin, mean (SE). The format is cell-based, human. As to the method: The CHO cells were cultured in α-minimal essential medium (MEM) supplemented with 10% bovine calf serum (Fisher Scientific), penicillin (1000 U/mL)/streptomycin (1000 μg/mL), and 2 mM L-glutamine at 37 °C with 5% CO2. All of the R2 transfected cells (PC43-10, RT16, R2/PCFT4) were cultured in complete α-MEM media plus 1 mg/mL G418. Prior to the cytotoxicity assays (see below), RT16 and D4 cells were cultured for 3 days in complete folate-free RPMI 1640 (without added folate), and R2/PCFT4 and R2 cells were cultured in complete folate-free RPMI 1640 supplemented with dialyzed fetal bovine serum (Fisher Scientific) and 25 nM leucovorin plus 1 mg/mL G418. KB cells were routinely cultured in folate-free RPMI 1640 medium, supplemented with 10% fetal bovine serum (Fisher Scientific), penicillin-streptomycin solution, and 2 mM L-glutamine at 37 °C with 5% CO2.
For growth inhibition studies, cells (CHO, KB) were plated in 96-well dishes (∼2500–5000 cells/well, total volume of 200 μL medium) over a range of antifolate concentrations.[69],[77] The medium was folate-free RPMI 1640 with 10% dialyzed serum and antibiotics supplemented with 25 nM leucovorin for experiments with R2, PC43-10, and R2/PCFT4 cells. For experiments with RT16, D4, and KB cells, cells were cultured in folate-free RPMI medium with 10% dialyzed fetal bovine serum and antibiotics; the medium was supplemented with 2 nM leucovorin. […] Incubations were routinely for up to 96 h. Viable cells (reflecting cell viability) were assayed with Cell Titer Blue reagent (Promega, Madison, WI), with fluorescence measured (590 nm emission, 560 nm excitation) with a fluorescence plate reader.

The test system of assay [1] is R2 (MTXRIIOuaR2-4) CHO cells. As to the kind of experiment: Growth inhibition, transporter-null R2 CHO cells. The class given is cell-based, Chinese hamster. The settings on record: Cricetulus griseus, 96 h, read-out: IC50 R2.
A further assay has as its system RT16 (FRα) CHO cells. As to the kind of experiment: Growth inhibition, RT16 CHO cells expressing human FRα. The format is cell-based, Chinese hamster. As to conditions: 96 h, mean (SE).
The next assay relates to HPNE (RFC) cells. As to the kind of experiment: Proliferation inhibition, HPNE normal pancreatic epithelial cells. The class given is cell-based. The settings on record: Homo sapiens, folate- and glycine-free RPMI, 25 nM leucovorin. An excerpt: (§1) The RFC-, PCFT-, and FR-null MTXRIIOua^R2–4 (R2), and RFC- (PC43-10), PCFT- (R2/PCFT4), FRα- (RT16), and FRβ- (D4) expressing CHO sublines were previously described.[62]−[64],[76] HPAC pancreatic cancer cells were generously provided by Dr. Yubin Ge (Karmanos Cancer Institute, Detroit, MI). Human pancreatic normal epithelial (HPNE) cells[67] were a gift from M. Oulette (University of Nebraska Medical Center, Omaha, NE). KB human nasopharyngeal carcinoma cells were purchased from the American Type Culture Collection (Manassas, VA). All human cell lines were validated by STR analysis by Genetica DNA Laboratories (Burlington, NC). Cell lines were tested for Mycoplasma by PCR using a Mycloplasma testing kit (Venor GeM Mycoplasma Detection Kit, Sigma). Frozen stocks were generated from authenticated Mycoplasma-free cultures.

The next assay relates to PC43-10 (RFC) CHO cells. As to the kind of experiment: Growth inhibition, PC43-10 CHO cells expressing human RFC. As to conditions: Cricetulus griseus, 96 h, read-out: IC50 PC43-10 (RFC). The format is cell-based, Chinese hamster.
In a further assay the test system is D4 (FRβ) CHO cells. As to the kind of experiment: Growth inhibition, D4 CHO cells expressing human FRβ. The class given is cell-based, Chinese hamster. As to conditions: for IC50: Cricetulus griseus, CHO, 96 h, mean (SE); for difference between D4 (FRβ) and RT16 (FRα) IC50: RT16 versus D4 CHO cells.
A further assay relates to HPAC (RFC/PCFT) cells. As to the kind of experiment: Proliferation inhibition, HPAC pancreatic adenocarcinoma cells. As to conditions: for IC50: HPAC cells, folate- and glycine-free RPMI, 25 nM leucovorin, mean (SE). The format is cell-based, human.
Source text: as §1

Assay [2] deals with R2/PCFT4 (PCFT) CHO cells. As to the kind of experiment: Growth inhibition, R2/PCFT4 CHO cells expressing human PCFT. The class given is cell-based, Chinese hamster. The settings on record: Cricetulus griseus, 96 h, read-out: IC50 R2/PCFT4 (PCFT).
Setting [3] is: Cricetulus griseus, read-out: IC50 RT16 (FRα), CHO cells expressing human FRα, 96 h, 2 nM leucovorin.
[4] abbreviates: read-out: IC50 D4 (FRβ), CHO cells expressing human FRβ, 96 h, 2 nM leucovorin.
The mark [5] stands for this setting: transporter-null CHO cells, 25 nM leucovorin, mean (SE).
Where [6] appears, read: Cricetulus griseus, CHO cells expressing human FRα, 2 nM leucovorin, read-out: IC50 RT16 (FRα).
The mark [7] stands for this setting: CHO cells expressing human RFC, 25 nM leucovorin, mean (SE).
Setting [8] is: CHO cells expressing human FRβ, 2 nM leucovorin, read-out: IC50 D4 (FRβ).
Setting [9] is: CHO cells expressing human PCFT, 25 nM leucovorin, mean (SE).

Where two headings read alike, the source gives them in different places. Bounds are passed on as bounds.

For the molecule `Nc1nc2ccn(CCCCCc3ccc(C(=O)N[C@@H](CCC(=O)O)C(=O)O)c(F)c3)c2c(=O)[nH]1` [Compound 11, (4-(5-(2-Amino-4-oxo-3,4-dihydro-5H-pyrrolo[3,2-d]pyrimidin-5-yl)pentyl)-2-fluorobenzoyl)-L-glutamic Acid], the IC50 is 6.25 nM in the assay with KB (RFC/PCFT/FRα) cells; over 1000 nM in assay [1] (CHO); 26.8 nM in the assay with RT16 (FRα) CHO cells (setting [3]); over 5 µM in the assay with HPNE (RFC) cells; over 1000 nM in the assay on PC43-10 (RFC) CHO cells; 6.95 nM in the assay with D4 (FRβ) CHO cells (setting [4]). The IC50 is 1230 nM in the assay on HPAC (RFC/PCFT) cells (Homo sapiens, HPAC) and over 1000 nM in assay [2].

`Nc1nc2ccn(CCCCCc3ccc(C(=O)N[C@@H](CCC(=O)O)C(=O)O)cc3)c2c(=O)[nH]1` [Compound 9]: the IC50 is 6.3 nM in the assay on KB (RFC/PCFT/FRα) cells; over 1000 nM in assay [1] (setting [5]); 13.5 nM in the assay on RT16 (FRα) CHO cells (setting [6]); over 5 µM in the assay with HPNE (RFC) cells; over 1000 nM in the assay with PC43-10 (RFC) CHO cells (setting [7]); 6.33 nM in the assay with D4 (FRβ) CHO cells (setting [8]). Also, the IC50 in the assay with HPAC (RFC/PCFT) cells (Homo sapiens, HPAC) was 1620 nM; in assay [2] (setting [9]), over 1000 nM.

On to `Nc1nc2ccn(CCCNc3ccc(C(=O)N[C@@H](CCC(=O)O)C(=O)O)cc3)c2c(=O)[nH]1` [Compound 8, (4-((3-(2-Amino-4-oxo-3,4-dihydro-5H-pyrrolo[3,2-d]pyrimidin-5-yl)propyl)amino)benzoyl)-L-glutamic Acid], for which the IC50 in the assay with KB (RFC/PCFT/FRα) cells was 6.17 nM; in assay [1] (setting [5]) it was over 1000 nM; in the assay with RT16 (FRα) CHO cells (setting [6]) it was 6.88 nM; in the assay with HPNE (RFC) cells, over 5 µM; in the assay with PC43-10 (RFC) CHO cells (setting [7]), over 1000 nM; in the assay with HPAC (RFC/PCFT) cells (Homo sapiens, HPAC), over 5000 nM. Also, in assay [2] (setting [9]), the IC50 is over 1000 nM.

Turning to `Nc1nc2ccn(CCCc3ccc(C(=O)N[C@@H](CCC(=O)O)C(=O)O)s3)c2c(=O)[nH]1` [Compound 4], the IC50 is 23.7 nM with KB (RFC/PCFT/FRα) cells; over 1000 nM in assay [1] (setting [5]); 33 nM with RT16 (FRα) CHO cells (setting [6]); over 5 µM in the assay on HPNE (RFC) cells; over 1000 nM in the assay on PC43-10 (RFC) CHO cells (setting [7]); 1.94 nM in the assay with D4 (FRβ) CHO cells (setting [8]). The IC50 in the assay on HPAC (RFC/PCFT) cells (Homo sapiens, HPAC) is 2990 nM; in assay [2] (setting [9]), 497 nM. Moreover, the “difference between D4 (FRβ) and RT16 (FRα) IC50” value (shortened to “difference between D4”) in the assay with D4 (FRβ) CHO cells is on record as 20- to 40 fold.

On to `Nc1nc2ccn(CCOc3ccc(C(=O)N[C@@H](CCC(=O)O)C(=O)O)cc3)c2c(=O)[nH]1` [Compound 6, (4-(3-(2-Amino-4-oxo-3,4-dihydro-5H-pyrrolo[3,2-d]pyrimidin-5-yl)ethoxy)benzoyl)-L-glutamic Acid], for which the IC50 is 11.2 nM in the assay with KB (RFC/PCFT/FRα) cells; over 1000 nM in assay [1] (setting [5]); 67.7 nM in the assay on RT16 (FRα) CHO cells (setting [6]); over 5 µM in the assay with HPNE (RFC) cells; over 1000 nM in the assay on PC43-10 (RFC) CHO cells (setting [7]); 1.62 nM in the assay with D4 (FRβ) CHO cells (setting [8]). The IC50 came to 4620 nM in the assay with HPAC (RFC/PCFT) cells (Homo sapiens, HPAC) and 431 nM in assay [2] (setting [9]). The “difference between D4” value in the assay with D4 (FRβ) CHO cells is 20- to 40 fold.

For the molecule `Nc1nc2ccn(CCCOc3ccc(C(=O)N[C@@H](CCC(=O)O)C(=O)O)cc3)c2c(=O)[nH]1` [Compound 5, (4-(3-(2-Amino-4-oxo-3,4-dihydro-5H-pyrrolo[3,2-d]pyrimidin-5-yl)propoxy)benzoyl)-L-glutamic Acid], the IC50 is 8.23 nM in the assay with KB (RFC/PCFT/FRα) cells; over 1000 nM in assay [1] (setting [5]); 18.7 nM in the assay on RT16 (FRα) CHO cells (setting [6]); over 5 µM in the assay on HPNE (RFC) cells; over 1000 nM with PC43-10 (RFC) CHO cells (setting [7]); 0.45 nM in the assay on D4 (FRβ) CHO cells (setting [8]). Besides, the IC50 in the assay on HPAC (RFC/PCFT) cells is 1670 nM; with HPAC (RFC/PCFT) cells (Homo sapiens, HPAC) it was 1200 to 1600 nM; in assay [2] (setting [9]) it was over 1000 nM. The “difference between D4” value in the assay on D4 (FRβ) CHO cells is given as 20- to 40 fold.

Take `Nc1nc2ccn(CCCCc3cc(F)c(C(=O)N[C@@H](CCC(=O)O)C(=O)O)c(F)c3)c2c(=O)[nH]1` [Compound 12, (4-(4-(2-Amino-4-oxo-3,4-dihydro-5H-pyrrolo[3,2-d]pyrimidin-5-yl)butyl)-2,6-difluorobenzoyl)-L-glutamic Acid]: the IC50 with KB (RFC/PCFT/FRα) cells was 9.26 nM; in assay [1] (setting [5]), over 1000 nM; in the assay on RT16 (FRα) CHO cells (setting [6]), 2.55 nM; in the assay with HPNE (RFC) cells, over 5 µM; in the assay on PC43-10 (RFC) CHO cells (setting [7]), over 1000 nM; in the assay on D4 (FRβ) CHO cells (setting [8]), 7.5 nM. Further, the IC50 in the assay with HPAC (RFC/PCFT) cells (Homo sapiens, HPAC) was over 5000 nM; in assay [2] (setting [9]), over 1000 nM.

Consider `Nc1nc2ccn(CCCCc3ccc(C(=O)N[C@@H](CCC(=O)O)C(=O)O)cc3)c2c(=O)[nH]1` [Compound 15], for which the IC50 in the assay with KB (RFC/PCFT/FRα) cells was 6.81 nM; in assay [1] (setting [5]), over 1000 nM; with RT16 (FRα) CHO cells (CHO cells expressing human FRα, 2 nM leucovorin, read-out: IC50 RT16 (FRα)), 1.64 nM; in the assay with RT16 (FRα) CHO cells (setting [6]), under 3 nM; in the assay with HPNE (RFC) cells, over 5 µM; with PC43-10 (RFC) CHO cells (setting [7]), over 1000 nM. Also, the IC50 in the assay on HPAC (RFC/PCFT) cells (Homo sapiens, HPAC) is 2590 nM; in assay [2] (setting [9]), over 1000 nM.

Consider `Nc1nc2ccn(CCCc3ccc(C(=O)N[C@@H](CCC(=O)O)C(=O)O)c(F)c3)c2c(=O)[nH]1` [Compound 13, (4-(3-(2-Amino-4-oxo-3,4-dihydro-5H-pyrrolo[3,2-d]pyrimidin-5-yl)propyl)-2-fluorobenzoyl)-L-glutamic Acid], for which the IC50 with KB (RFC/PCFT/FRα) cells was 8.34 nM; in assay [1] (setting [5]), over 1000 nM; in the assay with RT16 (FRα) CHO cells (setting [6]) it was 16.3 nM; with HPNE (RFC) cells, over 5 µM; with PC43-10 (RFC) CHO cells (setting [7]), 233 nM; with D4 (FRβ) CHO cells (setting [8]), 0.63 nM. In addition, the IC50 was found to be 166 nM with HPAC (RFC/PCFT) cells (Homo sapiens, HPAC) and 98 nM in assay [2] (setting [9]). In addition, in the assay with D4 (FRβ) CHO cells, the “difference between D4” value was 20- to 40 fold. Further, in the assay with HPAC (RFC/PCFT) cells, the “IC50 HPAC (RFC/PCFT)” value is on record as 2600 to 4600 nM.

Turning to `Nc1nc2ccn(CCCCCc3ccc(C(=O)N[C@@H](CCC(=O)O)C(=O)O)s3)c2c(=O)[nH]1` [Compound 3], the IC50 in the assay with KB (RFC/PCFT/FRα) cells is 7.47 nM; in assay [1] (CHO) it was over 1000 nM; with RT16 (FRα) CHO cells (setting [3]) it was 14.6 nM; with HPNE (RFC) cells, over 5 µM; in the assay with PC43-10 (RFC) CHO cells, over 1000 nM; with D4 (FRβ) CHO cells (setting [4]), 7.89 nM. The IC50 is 746 nM in the assay with HPAC (RFC/PCFT) cells; 746 nM with HPAC (RFC/PCFT) cells (Homo sapiens, HPAC); over 1000 nM in assay [2].

For the origin of these results see paper PMC10461232, “Structure-Based Design of Transport-Specific Multitargeted One-Carbon Metabolism Inhibitors in Cytosol and Mitochondria” (Journal of Medicinal Chemistry, 2023).
